# Laboratory results from patent publication US20260184675A1, “CHIRAL ISOMERIC SULFITE COMPOUND AND APPLICATION THEREOF” (Chengdu Hanova BioSciences Co., Ltd, priority 2024, published 2026).
# How the values were obtained:
# eggs of Thrips = experiment: Effect on hatching of eggs of Thrips, leaf disc method; assay type: in vivo; settings: 100 ppm; for Hatching rate (%): 5 days after insecticide delivery
# Summary of the method: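 Thrip egg hatching was tested by the leaf disc method on Vicia faba discs 2.0 cm across, placed over wetted filter paper. Egg numbers on each disc were counted under a microscope before treatment. Discs were then dipped for 10 seconds in clean water or a compound solution at 100 ppm. They were kept moist under normal conditions, and hatching was surveyed five days after insecticide delivery.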
# [1] = test system: eggs of Tetranychus urticae; experiment: Effect on hatching of eggs of Tetranychus urticae, leaf disc method; assay type: in vivo; settings: 5 ppm; for Hatching rate (%): 5 days after insecticide delivery
# Summary of the method: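 Twenty adult female Tetranychus urticae mites were placed on 2.0 cm Vicia faba leaf discs over wetted filter paper in lidded dishes kept moist, and removed within 36 hours. Eggs on each disc were counted under a microscope. The egg-bearing discs were dipped for 10 seconds in a compound solution at 5 ppm or in clear water, then kept moist, and hatching was checked five days after treatment.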
# eggs of Panonychus citri = experiment: Effect on hatching of eggs of Panonychus citri, leaf disc method; assay type: in vivo; settings: 1 ppm; for Hatching rate (%), Replicate 1 / Hatching rate (%), Replicate 2 / Hatching rate (%), Replicate 3 / Number of hatched larvae 5 days after insecticide delivery, Replicate 1 / Number of hatched larvae 5 days after insecticide delivery, Replicate 2 / Number of hatched larvae 5 days after insecticide delivery, Replicate 3: Panonychus citri eggs; for Hatching rate (%), Replicate 1 / Hatching rate (%), Replicate 2 / Hatching rate (%), Replicate 3: 5 days after delivery; for Number of hatched larvae 5 days after insecticide delivery, Replicate 1 / Number of hatched larvae 5 days after insecticide delivery, Replicate 2 / Number of hatched larvae 5 days after insecticide delivery, Replicate 3: leaf disc
# [2] = test system: eggs of Spodoptera litura; experiment: Effect on hatching of eggs of Spodoptera litura, egg piece soaking; assay type: in vivo; settings: 500 ppm; for Hatching rate (%), Replicate 1 / Hatching rate (%), Replicate 2 / Hatching rate (%), Replicate 3 / Number of unhatched larvae 4 days after insecticide delivery, Replicate 1 / Number of unhatched larvae 4 days after insecticide delivery, Replicate 2 / Number of unhatched larvae 4 days after insecticide delivery, Replicate 3: Spodoptera litura eggs; for Hatching rate (%), Replicate 1 / Hatching rate (%), Replicate 2 / Hatching rate (%), Replicate 3: 4 days after delivery; for Number of unhatched larvae 4 days after insecticide delivery, Replicate 1 / Number of unhatched larvae 4 days after insecticide delivery, Replicate 2 / Number of unhatched larvae 4 days after insecticide delivery, Replicate 3: soaked 10 minutes
# Summary of the method: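 Egg pieces of about 60 eggs were soaked 10 min in test agent at 500 ppm, blotted, then held singly at 24±1 °C, 80±10% RH, 12:12 L:D. Hatched and unhatched eggs were counted on day 4 to give hatching rate and control effect; 3 replicates.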
# Magnaporthe grisea = assay type: cell-based; settings: 100 ppm; for Average antifungal rate (%) / Antifungal rate of Magnaporthe grisea (%), Replicate 1 / Antifungal rate of Magnaporthe grisea (%), Replicate 2 / Antifungal rate of Magnaporthe grisea (%), Replicate 3: 96-well plate; for Average antifungal rate (%): average of 3 replicates
# [3] = Replicate 1, listed as 19-(R, R)
# [4] = Replicate 2, listed as 19-(R, R)
# [5] = Replicate 3, listed as 19-(R, R)
smiles,measurement,setting,value
"CCC(COc1ccc(Cl)cc1Cl)OS(=O)OCCF [19-(R,R)]",Hatching rate (%),eggs of Thrips; [3],12.63%
same,Hatching rate (%),eggs of Thrips; [4],13.46%
same,Hatching rate (%),eggs of Thrips; [5],13.04%
same,Number of hatched larvae 5 days after insecticide delivery,eggs of Thrips; [3],12
same,Number of hatched larvae 5 days after insecticide delivery,eggs of Thrips; [4],14
same,Number of hatched larvae 5 days after insecticide delivery,eggs of Thrips; [5],15
same,Hatching rate (%),[1]; [3],17.98%
same,Hatching rate (%),[1]; [4],17.92%
same,Number of hatched larvae 5 days after insecticide delivery,[1]; [3],16
same,Number of hatched larvae 5 days after insecticide delivery,[1]; [4],19
same,"Hatching rate (%), Replicate 1","eggs of Panonychus citri; listed as 19-(R, R)",7.52%
same,"Hatching rate (%), Replicate 2","eggs of Panonychus citri; listed as 19-(R, R)",8.41%
same,"Hatching rate (%), Replicate 3","eggs of Panonychus citri; listed as 19-(R, R)",8.33%
same,"Number of hatched larvae 5 days after insecticide delivery, Replicate 1","eggs of Panonychus citri; listed as 19-(R, R)",10
same,"Number of hatched larvae 5 days after insecticide delivery, Replicate 2","eggs of Panonychus citri; listed as 19-(R, R)",9
same,"Number of hatched larvae 5 days after insecticide delivery, Replicate 3","eggs of Panonychus citri; listed as 19-(R, R)",7
same,"Hatching rate (%), Replicate 1","[2]; listed as 19-(R, R)",50.85%
same,"Hatching rate (%), Replicate 2","[2]; listed as 19-(R, R)",51.61%
same,"Hatching rate (%), Replicate 3","[2]; listed as 19-(R, R)",50.79%
same,"Number of unhatched larvae 4 days after insecticide delivery, Replicate 1","[2]; listed as 19-(R, R)",29
same,"Number of unhatched larvae 4 days after insecticide delivery, Replicate 2","[2]; listed as 19-(R, R)",30
same,"Number of unhatched larvae 4 days after insecticide delivery, Replicate 3","[2]; listed as 19-(R, R)",31
same,inhibitory rate against Magnaporthe grisea (in words),Magnaporthe grisea,strong inhibitory rate
same,Average antifungal rate (%),Magnaporthe grisea,82.77%
same,"Antifungal rate of Magnaporthe grisea (%), Replicate 1",Magnaporthe grisea,81.29%
same,"Antifungal rate of Magnaporthe grisea (%), Replicate 2",Magnaporthe grisea,83.56%
same,"Antifungal rate of Magnaporthe grisea (%), Replicate 3",Magnaporthe grisea,83.45%
"CC[C@H](COc1ccc(Cl)cc1Cl)OS(=O)OCCF (stereo partly drawn) [19-(R,S)]",inhibitory activity on the hatching of eggs of Thrips (in words),eggs of Thrips,strong inhibitory activities
same,Hatching rate (%),eggs of Thrips; Replicate 1,0.00%
same,Hatching rate (%),eggs of Thrips; Replicate 2,0.00%
same,Hatching rate (%),eggs of Thrips; Replicate 3,0.00%
same,Number of hatched larvae 5 days after insecticide delivery,eggs of Thrips; Replicate 1,0
same,Number of hatched larvae 5 days after insecticide delivery,eggs of Thrips; Replicate 2,0
same,Number of hatched larvae 5 days after insecticide delivery,eggs of Thrips; Replicate 3,0
same,inhibitory activity on the hatching of eggs of Tetranychus urticae (in words),[1],strong inhibitory activities
same,Hatching rate (%),[1]; Replicate 1,0.00%
same,Hatching rate (%),[1]; Replicate 2,0.00%
same,Number of hatched larvae 5 days after insecticide delivery,[1]; Replicate 1,0
same,Number of hatched larvae 5 days after insecticide delivery,[1]; Replicate 2,0
same,inhibitory effect on the hatching of eggs of Panonychus citri (in words),eggs of Panonychus citri,good inhibitory effects
same,"Hatching rate (%), Replicate 1",eggs of Panonychus citri,0.00%
same,"Hatching rate (%), Replicate 2",eggs of Panonychus citri,0.00%
same,"Hatching rate (%), Replicate 3",eggs of Panonychus citri,0.00%
same,"Number of hatched larvae 5 days after insecticide delivery, Replicate 1",eggs of Panonychus citri,0
same,"Number of hatched larvae 5 days after insecticide delivery, Replicate 2",eggs of Panonychus citri,0
same,"Number of hatched larvae 5 days after insecticide delivery, Replicate 3",eggs of Panonychus citri,0
same,inhibitory activity on the hatching of eggs of Spodoptera litura (in words),[2],good inhibitory activities
same,"Hatching rate (%), Replicate 1",[2],15.63%
same,"Hatching rate (%), Replicate 2",[2],15.25%
same,"Hatching rate (%), Replicate 3",[2],16.67%
same,"Number of unhatched larvae 4 days after insecticide delivery, Replicate 1",[2],54
same,"Number of unhatched larvae 4 days after insecticide delivery, Replicate 2",[2],50
same,"Number of unhatched larvae 4 days after insecticide delivery, Replicate 3",[2],50
same,inhibitory rate against Magnaporthe grisea (in words),Magnaporthe grisea,strong inhibitory rate
same,Average antifungal rate (%),Magnaporthe grisea,100.04%
same,"Antifungal rate of Magnaporthe grisea (%), Replicate 1",Magnaporthe grisea,99.73%
same,"Antifungal rate of Magnaporthe grisea (%), Replicate 2",Magnaporthe grisea,100.15%
same,"Antifungal rate of Magnaporthe grisea (%), Replicate 3",Magnaporthe grisea,100.24%
"CC[C@@H](COc1ccc(Cl)cc1Cl)OS(=O)OCCF (stereo partly drawn) [19-(S,R)]",inhibitory activity on the hatching of eggs of Thrips (in words),eggs of Thrips,strong inhibitory activities
same,Hatching rate (%),eggs of Thrips; Replicate 1,0.00%
same,Hatching rate (%),eggs of Thrips; Replicate 2,0.00%
same,Hatching rate (%),eggs of Thrips; Replicate 3,0.00%
same,Number of hatched larvae 5 days after insecticide delivery,eggs of Thrips; Replicate 1,0
same,Number of hatched larvae 5 days after insecticide delivery,eggs of Thrips; Replicate 2,0
same,Number of hatched larvae 5 days after insecticide delivery,eggs of Thrips; Replicate 3,0
same,inhibitory activity on the hatching of eggs of Tetranychus urticae (in words),[1],strong inhibitory activities
same,Hatching rate (%),[1]; Replicate 1,0.00%
same,Hatching rate (%),[1]; Replicate 2,0.00%
same,Number of hatched larvae 5 days after insecticide delivery,[1]; Replicate 1,0
same,Number of hatched larvae 5 days after insecticide delivery,[1]; Replicate 2,0
same,inhibitory effect on the hatching of eggs of Panonychus citri (in words),eggs of Panonychus citri,good inhibitory effects
same,"Hatching rate (%), Replicate 1",eggs of Panonychus citri,0.00%
same,"Hatching rate (%), Replicate 2",eggs of Panonychus citri,0.00%
same,"Hatching rate (%), Replicate 3",eggs of Panonychus citri,0.00%
same,"Number of hatched larvae 5 days after insecticide delivery, Replicate 1",eggs of Panonychus citri,0
same,"Number of hatched larvae 5 days after insecticide delivery, Replicate 2",eggs of Panonychus citri,0
same,"Number of hatched larvae 5 days after insecticide delivery, Replicate 3",eggs of Panonychus citri,0
same,inhibitory activity on the hatching of eggs of Spodoptera litura (in words),[2],good inhibitory activities
same,"Hatching rate (%), Replicate 1",[2],15.79%
same,"Hatching rate (%), Replicate 2",[2],15.38%
same,"Hatching rate (%), Replicate 3",[2],15.38%
same,"Number of unhatched larvae 4 days after insecticide delivery, Replicate 1",[2],48
same,"Number of unhatched larvae 4 days after insecticide delivery, Replicate 2",[2],55
same,"Number of unhatched larvae 4 days after insecticide delivery, Replicate 3",[2],44
same,inhibitory rate against Magnaporthe grisea (in words),Magnaporthe grisea,strong inhibitory rate
same,Average antifungal rate (%),Magnaporthe grisea,99.77%
same,"Antifungal rate of Magnaporthe grisea (%), Replicate 1",Magnaporthe grisea,100.10%
same,"Antifungal rate of Magnaporthe grisea (%), Replicate 2",Magnaporthe grisea,99.34%
same,"Antifungal rate of Magnaporthe grisea (%), Replicate 3",Magnaporthe grisea,99.87%
